The results in this text go back to patent US10047051B2, “Substituted pyridines and method of use” (AbbVie S.á{acute over (.)}r.l., priority 2015, dated 2018).

The target in one assay is T1, CFTR G551D mutant (Homo sapiens, UniProt P13569, G551D).
T1 construct: expressed in transfected cells; host or cells: HEK293 cells, reverse transfection with plasmids
In words: YFP-halide influx assay for the CFTR-G551D mutation (HEK293 cells). Format: cell-based. The note with it: forskolin 10.67 μM. In a few lines:
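HEK293 cells reverse-transfected with CFTR G551D and halide-sensitive YFP (H148Q/I152L/F47L), expressed 24 h at 37 °C. YFP fluorescence quenching recorded for 7 s after I⁻ injection. Response = 1−F/F0; EC50 derived from 1−F/F0 vs compound concentration.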

A further assay has as its target T2, CFTR ΔF508 mutant (Homo sapiens, UniProt P13569, DEL508-508).
T2 construct: expressed in transfected cells; host or cells: CFBE41o- cells, adenoviral transduction
The assay is described as follows: YFP-halide influx assay for the CFTR-ΔF508 mutation (CFBE41o- cells). Format: cell-based. The conditions noted are these: forskolin 10.67 μM; for EC50: from (1−F/F0) vs concentration plot. In a few lines: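 CFBE41o- cells transduced with adenovirus expressing CFTR ΔF508 and halide-sensitive YFP H148Q/I152L/F47L, then held 24 h at 27° C or with a CFTR modulator 24 h at 37° C. Iodide-induced quench recorded 2 min; EC50 from (1−F/F0) at 36 s versus concentration.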

T1 sequence (P13569 whole entry G551D): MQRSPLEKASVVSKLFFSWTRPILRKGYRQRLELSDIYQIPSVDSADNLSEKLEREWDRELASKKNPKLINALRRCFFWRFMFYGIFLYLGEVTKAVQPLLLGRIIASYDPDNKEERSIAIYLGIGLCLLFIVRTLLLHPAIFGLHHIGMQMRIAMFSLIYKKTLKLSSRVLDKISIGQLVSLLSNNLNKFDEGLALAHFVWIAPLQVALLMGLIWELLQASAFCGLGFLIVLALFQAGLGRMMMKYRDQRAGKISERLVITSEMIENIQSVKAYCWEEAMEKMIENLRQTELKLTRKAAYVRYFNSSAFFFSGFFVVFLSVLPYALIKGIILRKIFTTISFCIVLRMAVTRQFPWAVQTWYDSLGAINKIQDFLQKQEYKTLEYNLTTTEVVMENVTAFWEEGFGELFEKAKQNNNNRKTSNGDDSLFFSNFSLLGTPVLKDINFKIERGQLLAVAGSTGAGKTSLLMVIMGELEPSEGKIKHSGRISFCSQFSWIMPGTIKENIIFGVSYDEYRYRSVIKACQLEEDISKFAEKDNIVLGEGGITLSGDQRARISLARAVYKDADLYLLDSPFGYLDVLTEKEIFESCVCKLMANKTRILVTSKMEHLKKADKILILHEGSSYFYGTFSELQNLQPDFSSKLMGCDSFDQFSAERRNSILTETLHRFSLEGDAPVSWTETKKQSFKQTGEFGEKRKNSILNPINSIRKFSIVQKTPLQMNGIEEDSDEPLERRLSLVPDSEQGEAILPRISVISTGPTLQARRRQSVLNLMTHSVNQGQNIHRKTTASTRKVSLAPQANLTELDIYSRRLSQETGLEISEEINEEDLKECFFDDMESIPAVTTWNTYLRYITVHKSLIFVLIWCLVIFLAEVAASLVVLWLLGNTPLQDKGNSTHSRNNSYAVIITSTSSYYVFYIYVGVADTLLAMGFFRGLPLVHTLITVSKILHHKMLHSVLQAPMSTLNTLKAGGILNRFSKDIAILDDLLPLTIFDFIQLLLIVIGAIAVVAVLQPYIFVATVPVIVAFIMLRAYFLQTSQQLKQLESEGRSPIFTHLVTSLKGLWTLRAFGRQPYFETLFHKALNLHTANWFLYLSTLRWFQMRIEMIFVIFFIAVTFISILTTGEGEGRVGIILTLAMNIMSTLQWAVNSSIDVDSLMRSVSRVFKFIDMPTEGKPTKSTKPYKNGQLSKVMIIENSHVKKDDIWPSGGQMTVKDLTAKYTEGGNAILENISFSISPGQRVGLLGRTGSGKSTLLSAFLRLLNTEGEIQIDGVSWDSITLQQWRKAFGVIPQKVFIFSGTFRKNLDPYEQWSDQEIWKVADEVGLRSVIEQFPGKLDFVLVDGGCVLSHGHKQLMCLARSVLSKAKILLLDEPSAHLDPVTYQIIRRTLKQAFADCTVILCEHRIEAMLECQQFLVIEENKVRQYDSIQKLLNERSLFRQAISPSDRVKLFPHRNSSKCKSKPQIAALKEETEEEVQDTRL
T2 sequence (P13569 with tags, fused parts or gaps DEL508-508): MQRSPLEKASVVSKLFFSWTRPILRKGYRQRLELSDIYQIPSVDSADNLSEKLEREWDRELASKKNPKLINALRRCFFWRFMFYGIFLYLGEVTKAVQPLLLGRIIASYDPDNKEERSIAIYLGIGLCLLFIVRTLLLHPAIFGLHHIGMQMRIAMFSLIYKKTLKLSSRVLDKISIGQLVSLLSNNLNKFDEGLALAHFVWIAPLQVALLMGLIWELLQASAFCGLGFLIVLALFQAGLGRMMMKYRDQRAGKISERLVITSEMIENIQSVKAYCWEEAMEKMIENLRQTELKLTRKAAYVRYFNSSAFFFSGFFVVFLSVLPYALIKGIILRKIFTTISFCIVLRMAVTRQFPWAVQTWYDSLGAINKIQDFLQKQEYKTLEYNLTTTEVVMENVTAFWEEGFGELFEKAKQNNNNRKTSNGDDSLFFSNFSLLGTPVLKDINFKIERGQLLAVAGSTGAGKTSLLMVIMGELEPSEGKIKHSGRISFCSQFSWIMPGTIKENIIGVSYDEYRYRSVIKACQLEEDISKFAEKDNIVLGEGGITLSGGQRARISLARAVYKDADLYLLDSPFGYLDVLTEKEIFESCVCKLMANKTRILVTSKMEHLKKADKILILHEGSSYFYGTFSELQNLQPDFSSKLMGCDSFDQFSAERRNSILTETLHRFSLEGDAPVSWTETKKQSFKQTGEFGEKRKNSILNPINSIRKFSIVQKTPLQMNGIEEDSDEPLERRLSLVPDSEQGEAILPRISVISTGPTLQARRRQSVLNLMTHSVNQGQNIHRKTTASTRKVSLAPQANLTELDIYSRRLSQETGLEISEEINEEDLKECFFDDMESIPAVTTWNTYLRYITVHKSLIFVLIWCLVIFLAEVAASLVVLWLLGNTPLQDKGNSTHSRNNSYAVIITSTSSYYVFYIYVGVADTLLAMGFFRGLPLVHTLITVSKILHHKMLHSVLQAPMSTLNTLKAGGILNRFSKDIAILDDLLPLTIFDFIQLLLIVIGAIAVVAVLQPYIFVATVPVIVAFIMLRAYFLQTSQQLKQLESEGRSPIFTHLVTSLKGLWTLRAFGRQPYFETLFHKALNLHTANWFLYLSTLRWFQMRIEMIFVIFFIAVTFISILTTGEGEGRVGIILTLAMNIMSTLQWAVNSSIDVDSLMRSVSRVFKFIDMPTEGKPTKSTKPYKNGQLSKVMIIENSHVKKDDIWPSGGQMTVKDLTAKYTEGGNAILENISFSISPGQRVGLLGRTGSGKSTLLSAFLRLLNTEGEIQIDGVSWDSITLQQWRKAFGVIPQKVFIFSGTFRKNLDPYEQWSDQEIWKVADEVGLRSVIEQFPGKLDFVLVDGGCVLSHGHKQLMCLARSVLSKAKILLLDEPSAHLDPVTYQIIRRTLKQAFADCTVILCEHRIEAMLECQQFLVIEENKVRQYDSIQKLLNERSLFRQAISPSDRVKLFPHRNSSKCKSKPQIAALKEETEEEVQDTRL

For orientation: EC50 means the concentration that produces a half-maximal response. A higher EC50 goes with a need for much substance. As for `CC(C)(O)C1CN(C(=O)c2ncc(S(=O)(=O)c3ccc(OC(F)(F)F)cc3F)cc2N)C1` [Compound 174, (3-amino-5-{[2-fluoro-4-(trifluoromethoxy)phenyl]sulfonyl}pyridin-2-yl)[3-(2-hydroxypropan-2-yl)azetidin-1-yl]methanone], on CFTR G551D mutant, the “% Activation” value turned out to be 50.3% and the EC50 amounted to 371 nM. Also, at CFTR ΔF508 mutant, the “% Activation” value came out at 118.3% and the EC50 came to 5.9 nM.
In the same order, the values of `Nc1cc(S(=O)(=O)c2ccc(F)cc2)cnc1C(=O)NCC1(O)CC1` [Compound 30, 3-amino-5-[(4-fluorophenyl)sulfonyl]-N-[(1-hydroxycyclopropyl)methyl]pyridine-2-carboxamide] are 36.4%, 5770 nM, 94.6% and 53.7 nM.
On to `C[C@H](O)CNC(=O)c1nc(C2CC2)c(S(=O)(=O)c2ccc(OC(F)(F)F)cc2)cc1N` [Compound 290, 3-amino-6-cyclopropyl-N-[(2S)-2-hydroxypropyl]-5-{[4-(trifluoromethoxy)phenyl]sulfonyl}pyridine-2-carboxamide], for which, on CFTR G551D mutant, the “% Activation” value was found to be 73.2% and the concentration giving a half-maximal response (EC50) came out at 473 nM. Moreover, on CFTR ΔF508 mutant, the “% Activation” value was found to be 88.2% and it took 3 nM to reach a half-maximal effect (EC50).
The like results for `CC(C)Oc1ccc(S(=O)(=O)c2cnc(C(=O)NCC(O)C(F)(F)F)c(N)c2)cc1` (stereo not shown) [Compound 237, 3-amino-5-{[4-(propan-2-yloxy)phenyl]sulfonyl}-N-(3,3,3-trifluoro-2-hydroxypropyl)pyridine-2-carboxamide] were, in that order, 69.5%, 546 nM, 106.5% and 9.9 nM.
As to `C[C@H](O)CNC(=O)c1ncc(S(=O)(=O)N(C)C2CCC2)cc1N` [Compound 278, 3-amino-5-[cyclobutyl(methyl)sulfamoyl]-N-[(2S)-2-hydroxypropyl]pyridine-2-carboxamide], on CFTR G551D mutant, the “% Activation” value amounted to 21.3% and the EC50 is more than 10000 nM. Also, at CFTR ΔF508 mutant, the “% Activation” value was determined as 105.0% and it took 44.1 nM to reach a half-maximal effect (EC50).
In the same order, the values of `C[C@H](O)CNC(=O)c1nc(-c2ccc(F)cc2)c(S(=O)(=O)C2CCCC2)cc1N` [Compound 261, 3-amino-5-(cyclopentanesulfonyl)-6-(4-fluorophenyl)-N-[(2S)-2-hydroxypropyl]pyridine-2-carboxamide] are 16.6%, more than 1000 nM, 87.3% and 162 nM.
Take `CC1(C)CN(S(=O)(=O)c2cnc(C(=O)NCC(O)C(F)(F)F)c(N)c2)C1` (stereo not shown) [Compound 199, 3-amino-5-[(3,3-dimethylazetidin-1-yl)sulfonyl]-N-(3,3,3-trifluoro-2-hydroxypropyl)pyridine-2-carboxamide]: the “% Activation” value was 65.0% on CFTR G551D mutant and 114.1% on CFTR ΔF508 mutant. Further, the EC50 at CFTR G551D mutant came out at 1430 nM; on CFTR ΔF508 mutant it was 21.6 nM.
`Nc1cc(S(=O)(=O)c2ccc(OC(F)(F)F)cc2)cnc1C(=O)NCC1(CO)CC1` [Compound 22, 3-amino-N-{[1-(hydroxymethyl)cyclopropyl]methyl}-5-{[4-(trifluoromethoxy)phenyl]sulfonyl}pyridine-2-carboxamide]: the “% Activation” value on CFTR G551D mutant is listed as 53.2%; at CFTR ΔF508 mutant, 102.2%. For the same compound, the half-maximal effective concentration (EC50) on CFTR G551D mutant is 778 nM; on CFTR ΔF508 mutant, 54.1 nM.
In the same order, the values of `Nc1cc(S(=O)(=O)N2CCC(F)(F)C2)cnc1C(=O)NCC(O)C(F)(F)F` (stereo not shown) [Compound 186, 3-amino-5-[(3,3-difluoropyrrolidin-1-yl)sulfonyl]-N-(3,3,3-trifluoro-2-hydroxypropyl)pyridine-2-carboxamide] are 49.9%, 108.2%, more than 3330 nM and 29.9 nM.
In the same order, the values of `CO[C@H]1C[C@H](NC(=O)c2ncc(S(=O)(=O)c3ccc(OC(F)(F)F)cc3)cc2N)C1` [Compound 120, 3-amino-N-(trans-3-methoxycyclobutyl)-5-{[4-(trifluoromethoxy)phenyl]sulfonyl}pyridine-2-carboxamide] are 54.0%, 96.5%, 1110 nM and 76.8 nM.
The like results for `CC(C)CNC(=O)c1ncc(S(=O)(=O)c2ccc(C(F)(F)F)cc2)cc1N` [Compound 189, 3-amino-N-(2-methylpropyl)-5-{[4-(trifluoromethyl)phenyl]sulfonyl}pyridine-2-carboxamide] were, in that order, 30.7%, 99.9%, more than 10000 nM and 112 nM.
For the compound `Nc1cc(S(=O)(=O)N2CCCC(F)C2)cnc1C(=O)NCC(O)C(F)(F)F` (stereo not shown) [Compound 194, 3-amino-5-[(3-fluoropiperidin-1-yl)sulfonyl]-N-(3,3,3-trifluoro-2-hydroxypropyl)pyridine-2-carboxamide], on CFTR G551D mutant, the “% Activation” value is reported as 62.3% and the response was half-maximal at 1780 nM (EC50). In addition, at CFTR ΔF508 mutant, the “% Activation” value is 95.7% and the EC50 was 32.7 nM.
In the same order, the values of `C[C@H](O)CNC(=O)c1ncc(S(=O)(=O)N(C)Cc2ccc(F)cc2)cc1N` [Compound 269, 3-amino-5-[(4-fluorobenzyl)(methyl)sulfamoyl]-N-[(2S)-2-hydroxypropyl]pyridine-2-carboxamide] are 44.8%, 1310 nM, 107.0% and 7.8 nM.
The like results for `Nc1cc(S(=O)(=O)c2cccc(F)c2)cnc1C(=O)NC[C@@H](O)C(F)(F)F` [Compound 254, 3-amino-5-[(3-fluorophenyl)sulfonyl]-N-[(2R)-3,3,3-trifluoro-2-hydroxypropyl]pyridine-2-carboxamide] were, in that order, 56.0%, 1450 nM, 106.0% and 5 nM.
For `Nc1cc(S(=O)(=O)c2ccc(OC(F)(F)F)cc2)cnc1C(=O)NC1COC2(CCCCC2)C1` (stereo not shown) [Compound 149, 3-amino-N-(1-oxaspiro[4.5]dec-3-yl)-5-{[4-(trifluoromethoxy)phenyl]sulfonyl}pyridine-2-carboxamide], on CFTR G551D mutant, the “% Activation” value is reported as 42.7% and the EC50 was more than 1670 nM. At CFTR ΔF508 mutant, the “% Activation” value came out at 91.2% and the midpoint of the response, the EC50, lay at 179 nM.
On to `Nc1cc(S(=O)(=O)c2ccccc2OC(F)(F)F)cnc1C(=O)N[C@@H]1COCC[C@@H]1O` (racemic) [Compound 83, rac-3-amino-N-[(3R,4S)-4-hydroxytetrahydro-2H-pyran-3-yl]-5-{[2-(trifluoromethoxy)phenyl]sulfonyl}pyridine-2-carboxamide], for which, at CFTR G551D mutant, the “% Activation” value worked out at 90.4% and the concentration for a half-maximal effect (EC50) came out at 1200 nM. At CFTR ΔF508 mutant, the “% Activation” value turned out to be 98.3% and the EC50 was determined as 6.3 nM.
Turning to `Nc1cc(S(=O)(=O)N2CCC(F)(F)CC2)cnc1C(=O)NCC(O)C(F)(F)F` (stereo not shown) [Compound 84, 3-amino-5-[(4,4-difluoropiperidin-1-yl)sulfonyl]-N-(3,3,3-trifluoro-2-hydroxypropyl)pyridine-2-carboxamide], the “% Activation” value on CFTR G551D mutant came out at 64.4%; at CFTR ΔF508 mutant, 101.0%. Besides, the EC50 at CFTR G551D mutant was determined as 1940 nM; at CFTR ΔF508 mutant, 10.5 nM.
Consider `Nc1cc(S(=O)(=O)c2ccc(OC(F)(F)F)cc2)cnc1C(=O)N1CC2(CCCOC2)C1` [Compound 121, (3-amino-5-{[4-(trifluoromethoxy)phenyl]sulfonyl}pyridin-2-yl)(6-oxa-2-azaspiro[3.5]non-2-yl)methanone], for which, at CFTR G551D mutant, the “% Activation” value is 88.6% and a half-maximal effect (EC50) was put at 1330 nM. In addition, on CFTR ΔF508 mutant, the “% Activation” value worked out at 102% and the midpoint of the response, the EC50, lay at 113 nM.
For `Nc1cc(S(=O)(=O)c2ccc(OC(F)(F)F)cc2)cnc1C(=O)NCC1CCOCC1` [Compound 129, 3-amino-N-(tetrahydro-2H-pyran-4-ylmethyl)-5-{[4-(trifluoromethoxy)phenyl]sulfonyl}pyridine-2-carboxamide], the “% Activation” value at CFTR G551D mutant amounted to 25.9%; at CFTR ΔF508 mutant it was 74.9%. Further, the results for the concentration for a half-maximal effect (EC50) on CFTR G551D mutant and on CFTR ΔF508 mutant were more than 10000 nM and 180 nM, respectively.
For `Nc1cc(S(=O)(=O)c2ccc(OC(F)(F)F)cc2)cnc1C(=O)NCC(O)CF` (stereo not shown) [Compound 273, 3-amino-N-(3-fluoro-2-hydroxypropyl)-5-{[4-(trifluoromethoxy)phenyl]sulfonyl}pyridine-2-carboxamide], at CFTR G551D mutant, the “% Activation” value was determined as 39.5% and the concentration for a half-maximal effect (EC50) came out at 1010 nM. Further, at CFTR ΔF508 mutant, the “% Activation” value was determined as 112.0% and the midpoint of the response, the EC50, lay at 10.3 nM.
Regarding `N#CC1CN(C(=O)c2ncc(S(=O)(=O)c3ccc(OC(F)(F)F)cc3)cc2N)C1` [Compound 61, 1-[(3-amino-5-{[4-(trifluoromethoxy)phenyl]sulfonyl}pyridin-2-yl)carbonyl]azetidine-3-carbonitrile], the “% Activation” value was found to be 70.0% at CFTR G551D mutant and 101.0% at CFTR ΔF508 mutant. Further, the values for the half-maximal effective concentration (EC50) on CFTR G551D mutant and at CFTR ΔF508 mutant were 2730 nM and 60.9 nM, respectively.
`Nc1cc(S(=O)(=O)c2ccc(OC(F)(F)F)cc2F)cnc1C(=O)N1CC(F)(F)C1` [Compound 172, (3-amino-5-{[2-fluoro-4-(trifluoromethoxy)phenyl]sulfonyl}pyridin-2-yl)(3,3-difluoroazetidin-1-yl)methanone]: on CFTR G551D mutant, the “% Activation” value stood at 62.4% and the EC50 worked out at 864 nM. Moreover, on CFTR ΔF508 mutant, the “% Activation” value is listed as 95.9% and it took 13.4 nM to reach a half-maximal effect (EC50).
